In brackets after ≈: the same amount, converted by molar mass.
Key:
[1] = 25° C.; cited from earlier work
[2] = Experimental: For facilitating the interpretation of obtained results, the stress conditions of described studies should be converted to the condition of the currently running long term stability program for an eye drop formulation. For this purpose, the values of pH drop for stock formulations stored in glass containers from the study were compared with pH drop profile for a clinical batch stored at 25° C. in LDPE plastic containers without antioxidant (STS).

Compound | solubility in pure water [1] [mg/mL] | storage time during which the antioxidant can stabilize the formulation [2]
OC[C@H]1O[C@@H]2O[C@H]3[C@H](O)[C@@H](O)[C@@H](O[C@H]4[C@H](O)[C@@H](O)[C@@H](O[C@H]5[C@H](O)[C@@H](O)[C@@H](O[C@H]6[C@H](O)[C@@H](O)[C@@H](O[C@H]7[C@H](O)[C@@H](O)[C@@H](O[C@H]1[C@H](O)[C@H]2O)O[C@@H]7CO)O[C@@H]6CO)O[C@@H]5CO)O[C@@H]4CO)O[C@@H]3CO [α-cyclodextrin] | 129.5 ± 0.7 (≈ 133 mM) | 
OC[C@H]1O[C@@H]2O[C@H]3[C@H](O)[C@@H](O)[C@@H](O[C@H]4[C@H](O)[C@@H](O)[C@@H](O[C@H]5[C@H](O)[C@@H](O)[C@@H](O[C@H]6[C@H](O)[C@@H](O)[C@@H](O[C@H]7[C@H](O)[C@@H](O)[C@@H](O[C@H]8[C@H](O)[C@@H](O)[C@@H](O[C@H]9[C@H](O)[C@@H](O)[C@@H](O[C@H]1[C@H](O)[C@H]2O)O[C@@H]9CO)O[C@@H]8CO)O[C@@H]7CO)O[C@@H]6CO)O[C@@H]5CO)O[C@@H]4CO)O[C@@H]3CO [γ-cyclodextrin] | 249.2 ± 0.2 (≈ 192 mM) | 
DL-Tartaric acid |  | at least 1 year

Source: patent US12403147B2, “Treatment of ocular inflammation following ocular surgery” (Oculis Operations Sàrl, priority 2019, dated 2025)
